Reference: patent US9000028B2, “Indole and indazole compounds as an inhibitor of cellular necrosis” (LG Life Sciences Ltd., priority 2007, dated 2015)

What follows are compounds tested on primary hepatocytes isolated from rats (assay: Hepatocyte protective effect against substances deriving hepatocyte toxicity (WST-1 viability)). Conditions: Rattus norvegicus, Hepatocyte, doxorubicin, 24-48 h, read-out: EC50, cell protective effects against doxorubicin in hepatocytes.
Assay type: cell-based
Procedure: Various endogenous/exogenous attacks on the cells trigger the mechanisms of cell death which is broadly classified into two types, i.e. apoptosis or necrosis. Using these cell death mechanisms, in the present experimental example, primary hepatocytes isolated from rats were treated with drugs which were clinically shown to result in serious side-effects of hepatocyte toxicity or various chemicals which derive cell death, and the compounds synthesized in the Examples were estimated for their hepatocyte protective effects, after 24-48 h. The substances used to derive hepatocyte death include CCl4, ActD, H2O2, doxorubicin, anti-Fas Ab/Actinomycin D, acetaminophen, EtOH, CdCl2, palmitate, stearate, cyclophosphamide, terfenadine, diclofenac, simvastatin, and adefovir. Primary hepatocytes were isolated using the method of Seglen PO (Experimental Cell Research 74 (1972) pp 450-454). Briefly, hepatocytes were isolated according to the two-step collagenase perfusion method, and dead cells were removed by low speed (500 rpm) centrifugation for 10 min using percoll gradient (Kreamer B L etc, In Vitro Cellular & Developmental Biology 22 (1986) pp 201-211). During this step, the viability of cells was maintained 90% or above. The cells were suspended in HepatoZYME media (Gibco BRL), and the number of cells was counted. 1.5×10^4 cells in 100 μl were placed into the collagen-coated 96-well plate (BD biocoat), and adhered on the bottom for 3-4 h.
In order to assess the hepatocyte protective effect, above adhered cells were pretreated with the Example compounds for 30 min. At this time, the concentration of the Example compounds were serially diluted by 2-fold or 3-fold over 5 steps starting from 30 uM, 10 uM or 1 uM depending on the experiments, and the final concentration of DMSO was adjusted to 0.2%. 30 min after the treatment by compounds, cells were treated by the substances deriving hepatocyte death or hepatotoxic drugs at the concentrations indicated in Table 1. After 24-48 h, the viability of cells was determined to estimate the hepatocyte protective effects. The viability of cells was determined using WST-1 (MK-400, […]) method by the absorbance at 440 nm. Hepatocyte protective effects of the Example compounds were represented by “EC50,” which was calculated from measured values. “EC50” herein means the concentration of the compound at which 50% of maximum protective effect is observed in the experiment.

| Structure (SMILES) | EC50 [nM] |
| --- | --- |
| O=C(O)CNc1cc(Oc2ccccc2)cc2cc(-c3ccccc3)[nH]c12 [Example 109, 2-[(5-Phenoxy-2-phenyl-1H-indol-7-yl)amino]-acetic acid] | 257 |
| CC(=O)N1CCC(Nc2cc(C)cc3cc(-c4ccccn4)[nH]c23)CC1 [Example 12, 1-[4-[(5-Methyl-2-(pyridin-2-yl)-1H-indol-7-yl)-amino]piperidin-1-yl]ethanone] | 400 |
| c1cc(NC2CCOCC2)c2[nH]ncc2c1 [Example 154, (Tetrahydropyran-4-yl)-(1H-indazol-7-yl)-amine] | 4200 |
| Clc1cc(NC2CCOCC2)c2[nH]c(-c3ccccc3)cc2c1 [Example 48, (Tetrahydropyran-4-yl)-(5-chloro-2-phenyl-1H-indol-7-yl)-amine] | 44 |
| O=S1(=O)CCN(Cc2cc(NC3CCOCC3)c3[nH]cc(-c4ccccc4)c3c2)CC1 [Example 161, (Tetrahydropyran-4-yl)-[5-(1,1-dioxo-thiomorpholin-4-yl)methyl-3-phenyl-1H-indol-7-yl)-amine] | 360 |
| O=C(O)c1ccccc1-c1cc2cc(Cl)cc(NC3CCCC3)c2[nH]1 [Example 134, 2-(5-Chloro-7-cyclopentylamino-1H-indol-2-yl)-benzoic acid] | > 1000 |
| O=C(O)c1ccc(-c2cc3cc(Cl)cc(NC4CCCC4)c3[nH]2)cc1 [Example 138, 4-(5-Chloro-7-cyclopentylamino-1H-indol-2-yl)-benzoic acid] | 100 |
| CN1CCC(Nc2ccc(-c3cc4cc(Cl)cc(NC5CCCC5)c4[nH]3)cc2)CC1 [Example 83, Cyclopentyl-{5-chloro-2-[4-(1-methyl-piperidin-4-yl)aminophenyl]-1H-indol-7-yl}-amine] | 50 |
| Clc1cc(NC2CCOCC2)c2[nH]c(-c3cccc(CC4CCNC4)c3)cc2c1 (centres unmarked) [Example 149, [5-Chloro-2-(3-pyrrolidin-4-ylmethylphenyl)-1H-indol-7-yl]-(tetrahydropyran-4-yl)-amine] | 550 |
| Cc1cc(NC2CCC(=O)CC2)c2[nH]c(-c3ccccn3)cc2c1 [Example 20, (1-Cyclohexanon-4-yl)-[5-methyl-2-(pyridin-2-yl)-1H-indol-7-yl]-amine] | 300 |
| O=C(O)C[C@@H]1CSC(c2cc(NC3CCCC3)c3[nH]c(-c4ccccc4)cc3c2)=N1 [Example 121, 2-[(R)-2-(7-cyclopentylamino-2-phenyl-1H-indol-5-yl)-4,5-dihydro-thiazol-4-yl]-acetic acid] | 200 |
| O=S1(=O)CCC(N2CCC(Nc3cc(F)cc4cc(-c5ccccc5)[nH]c34)CC2)CC1 [Example 99, (5-Fluoro-2-phenyl-1H-indol-7-yl)-[1-(1,1-dioxo-tetrahydrothiopyran-4-yl)-piperidin-4-yl]-amine] | 200 |
| c1cc(NC2CCCC2)c2[nH]c(-c3cnccn3)cc2c1 [Example 5, Cyclopentyl-[2-(pyrazin-2-yl)-1H-indol-7-yl]-amine] | 500 |
| Cc1cc(N(C)C2CCCC2)c2[nH]c(-c3ccccn3)cc2c1 [Example 27, Cyclopentyl-methyl-[5-methyl-2-(pyridin-2-yl)-1H-indol-7-yl]-amine] | 2400 |
| CN1CCC(Nc2cc(Cl)cc3cc(-c4ccccc4)[nH]c23)CC1 [Example 52, (1-Methylpiperidin-4-yl)-(5-chloro-2-phenyl-1H-indol-7-yl)-amine] | 140 |
| c1ccc(Oc2cc(NC3CCCC3)c3[nH]c(-c4ccccn4)cc3c2)cc1 [Example 9, Cyclopentyl-[5-phenoxy-2-(pyridin-2-yl)-1H-indol-7-yl]-amine] | 200 |
| CNC1CCC(Nc2cc(Cl)cc3cc(-c4ccccc4)[nH]c23)CC1 (centres unmarked) [Example 101, N-(5-chloro-2-phenyl-1H-indol-7-yl)-N′-methyl-cyclohexane-1,4-diamine] | 80 |
| O=C1CN(CCc2cccc(-c3cc4cc(Cl)cc(NC5CCOCC5)c4[nH]3)c2)CCN1 [Example 151, {5-Chloro-2-[3-(2-oxo-piperazin-4-yl)ethylphenyl]-1H-indol-7-yl}-(tetrahydropyran-4-yl)-amine] | > 2000 |

| Structure (SMILES) | EC50 [nM] |
| --- | --- |
| COC(=O)c1ccc(-c2cc3cc(Cl)cc(NC4CCCC4)c3[nH]2)cc1 [Example 142, 4-(5-Chloro-7-cyclopentylamino-1H-indol-2-yl)benzoic acid methyl ester] | 50 |
| c1ccc(-c2cc3cccc(NC4CCCC4)c3[nH]2)nc1 [Example 7, Cyclopentyl-[2-(pyridin-2-yl)-1H-indol-7-yl]amine] | 500 |
| O=C(O)Cc1ccc(-c2cc3cc(Cl)cc(NCC4CCOCC4)c3[nH]2)cc1 [Example 139, 2-{4-[5-Chloro-7-(tetrahydropyran-4-ylmethyl)amino-1H-indol-2-yl]phenyl}-acetic acid] | 330 |
| O=S1(=O)CCN(Cc2cc(N(CC3CCOCC3)CC3CCOCC3)c3[nH]c(-c4ccccc4)cc3c2)CC1 [Example 57, Di(tetrahydropyran-4-ylmethyl)-[2-phenyl-5-(1,1-dioxo-thiomorpholin-4-yl)methyl-1H-indol-7-yl]amine] | 270 |
| O=C(O)Cc1ccc(-c2cc3cc(Cl)cc(NC4CCCC4)c3[nH]2)cc1 [Example 140, 2-[4-(5-Chloro-7-cyclopentylamino-1H-indol-2-yl)phenyl]-acetic acid] | 130 |
| CC(=O)Nc1ccc(-c2cc3cc(N4CCS(=O)(=O)CC4)cc(NC(C4CCOCC4)C4CCOCC4)c3[nH]2)cc1 [Example 88, Di(tetrahydropyran-4-yl)methyl-{5-(1,1-dioxo-thiomorpholin-4-yl)-2-[4-(acetyl)aminophenyl]-1H-indol-7-yl}-amine] | > 2000 |
| CC(=O)Nc1ccc(-c2cc3cc(CN4CCS(=O)(=O)CC4)cc(NC4CCCC4)c3[nH]2)cc1 [Example 85, Cyclopentyl-{5-(1,1-dioxo-thiomorpholin-4-yl)methyl-2-[4-(acetyl)aminophenyl]-1H-indol-7-yl}-amine] | 360 |
| O=C(O)Cc1cccc(-c2cc3cc(Cl)cc(NC4CCOCC4)c3[nH]2)c1 [Example 129, 2-{3-[5-Chloro-7-(tetrahydropyran-4-yl)amino-1H-indol-2-yl]-phenyl}-acetic acid] | 1160 |
| Clc1cc(NC2CCNCC2)c2[nH]c(-c3ccccc3)cc2c1 [Example 93, (5-Chloro-2-phenyl-1H-indol-7-yl)-piperidin-4-yl-amine] | 160 |
| OCCc1ccc(-c2cc3cc(Cl)cc(NC4CCOCC4)c3[nH]2)cc1 [Example 137, 2-{4-[5-Chloro-7-(tetrahydropyran-4-yl)amino-1H-indol-2-yl]phenyl}-ethanol] | 160 |
| COC(=O)Cc1cccc(-c2cc3cc(Cl)cc(NC4CCCC4)c3[nH]2)c1 [Example 131, 2-[3-(5-Chloro-7-cyclopentylamino-1H-indol-2-yl)-phenyl]-acetic acid methyl ester] | 360 |
| Cc1ccc(Nc2cc(Cl)cc3cc(-c4ccccc4)[nH]c23)nc1 [Example 114, (5-Chloro-2-phenyl-1H-indol-7-yl)-5-methyl-pyridin-2-yl-amine] | 370 |
| O=C(O)Cc1cc(NC2CCS(=O)(=O)CC2)c2[nH]c(-c3ccccc3)cc2c1 [Example 35, 2-[2-Phenyl-7-(1,1-dioxo-tetrahydro-thiopyran-4-yl)amino-1H-indol-5-yl]-acetic acid] | 630 |
| Cc1cc(NC2CCOCC2)c2[nH]ncc2c1 [Example 156, (5-Methyl-1H-indazol-7-yl)-(tetrahydropyran-4-yl)-amine] | > 10000 |
| Clc1cc(NC2CCCC2)c2[nH]c(-c3ccccc3)cc2c1 [Example 46, Cyclopentyl-(5-chloro-2-phenyl-1H-indol-7-yl)-amine] | 50 |
| COC(=O)c1ccc(-c2cc3cc(C)cc(NC4CCCC4)c3[nH]2)cc1 [Example 143, 4-(7-Cyclopentylamino-5-methyl-1H-indol-2-yl)benzoic acid methyl ester] | 66 |
| OCc1ccccc1-c1cc2cc(Cl)cc(NC3CCCC3)c2[nH]1 [Example 133, [2-(5-Chloro-7-cyclopentylamino-1H-indol-2-yl)-phenyl]-methanol] | 150 |
| Clc1cc(NC2CCC3(CC2)OCCO3)c2[nH]c(-c3ccccc3)cc2c1 [Example 53, (1,4-Dioxaspiro[4.5]decan-8-yl)-(5-chloro-2-phenyl-1H-indol-7-yl)-amine] | 40 |

Same assay, conditions: doxorubicin; rat primary hepatocytes; 24-48 h; read-out: EC50, cell protective effects against doxorubicin in hepatocytes

| Structure (SMILES) | EC50 [nM] |
| --- | --- |
| O=C(O)Cc1cccc(-c2cc3cc(Cl)cc(NC4CCCC4)c3[nH]2)c1 [Example 128, 2-[3-(5-Chloro-7-cyclopentylamino-1-H-indol-2-yl)-phenyl]-acetic acid] | 170 |
| COc1ccc(-c2n[nH]c3c(NC4CCOCC4)cccc23)cc1 [Example 158] | 2770 |
